{"source": "patent US5691338A", "about": "“1,2-dithiole-3 thiones for the treatment of reverse transcriptase-dependent viral infections” (priority 1995, dated 1997)", "key": {"[1]": {"target": "T1, HIV-1 reverse transcriptase (RT) (Human immunodeficiency virus type 1 group M subtype B, UniProt P04585)", "T1 construct": "Recombinant HIV-1 reverse transcriptase (RT) was obtained from Worthington (Freehold, N.J.); purchased Worthington (Freehold, N.J.)", "assay": "Inhibition of recombinant HIV-1 reverse transcriptase (TTP incorporation)", "assay_type": "biochemical", "details": "for Ki: Segal transformation of Dixon plots", "procedure": "(§1) Reverse transcriptase assays were performed as described by Flexner, et al. (25) using recombinant HIV-1 RT as the source of enzyme. Dilutions and assay were carried out in 96-well \"half-area\" plates. The enzyme with various concentrations of test compounds were dissolved in DPBS containing 1% w/v BSA and diluted in 50 μl volumes; 10 μl aliquots in triplicate were transferred to another plate for the enzyme assay. The reactions were initiated by the addition of 25 μl/well of buffer containing 50 mM Tris.cndot.Cl (pH 8.0), 75 mM KCl, 1 mM dithiothreitol, 2 mM MgCl2, 5 μg/ml poly(A), 2.5 μg/ml oligo (dT), 10 μCi/ml ^32 p TTP with or without unlabeled TTP. […] TTP incorporation was measured by spotting 20 μl of the reaction cocktail onto DE81 paper, washing the paper with 4×5 min washes of 300 mM NaCl and 30 mM sodium citrate (pH 7.0), drying the paper, and counting the paper by liquid scintillation counting. The assays performed with oltipraz and 1,2-dithiole-3-thione contained 0.29% final concentration DMSO. This concentration of DMSO had no effect on RT activity."}, "[2]": {"system": "HTLV-I reverse transcriptase", "details": "MT-2 (HTLV-I-infected) cells, FIG. 7", "experimental": "MT-2 is a lymphocytic cell-line that is transformed by, and is antigen positive for HTLV-I. HTLV-I can be detected in supernatants of MT-2 cultures by monitoring reverse transcriptase activity. Using the MT-2 system compounds that are inhibitors of HTLV-I reverse transciptase can be identified. MT-2 cells are washed and incubated in triplicate with various concentrations of the test compounds, positive drug controls, negative drug controls or media alone. A cell-line that is negative for HTLV-I, such as H9, is used as a negative reverse transcriptase control. After 72 hours of incubation, culture supernatants are harvested and tested for reverse transcriptase activity as described (25). Inhibition of reverse transcriptase activity is calculated by comparing the radioactive counts in the experimental compounds to the MT-2 non-drug controls. ED50's can be calculated for each compound."}, "[3]": {"details": "cited from earlier work"}, "HIV-1 (HTLVIIIB) [4]": {"system": "HIV-1 (HTLVIIIB)", "assay": "microbe, parasite or virus in culture", "details": "for synergy in inhibiting HIV-1 replication: p24 release / IFA, H9 cells, high viral inhibition", "procedure": "The effects for test compounds were assessed by means of both IFA and p24 release. In general, the following protocol was followed: H9 cells were infected with HIV-1 at 1000 50% infective doses of viruses/10^6 cells. Virus was allowed to adsorb for 1 h, after which unadsorbed virus was removed by centrifugation. The cells were resuspended and washed twice with PBS (without Ca^+2 or Mg^+2 salts) and centrifuged to collect the cell pellet (150×g×10 min). Cells were suspended in fresh medium and added at a final cell density of 500,000 cells/ml in a 96-well plate with media containing 0.1% DMSO and various concentrations of test compounds. The cells were re-fed freshly prepared media containing 0.1% DMSO±test compounds on day four (for preinduction experiments, cells were exposed to inducers on days -2, 0, and +4 days relative to infection). After seven days, cells were examined for cytoxicity by trypan blue exclusion, the degree of infection with HIV-1 by IFA, and the supernatants were assayed for p24 levels according to the manufacturer's directions. The IFA procedure can be summarized as follows: The cells were washed twice in PBS and were placed in 5 mm 12-well slides. After allowing the slides to dry and fixing the cells with acetone for 5 min, 10 μl of HIV-1 positive serum in 40 μl PBS was added to each well and allowed to incubate at 37° C. for 30 min. After incubation, the slides were washed twice with PBS and incubated at 37° C. for 30 min with 2.5 μl goat anti-human IgG-fluorescein isothiocyanate conjugate in 50 μl PBS containing 0.01% Evans Blue per well. The slides were then washed twice with PBS, dried, and mounted with 50% glycerol in PBS, and scored for the percentage of fluorescent cells by fluorescent microscopy.\nStatistical significance for GSH and QR levels were established by the unpaired t test using the INSTAT statistics program (Graphpad, San Diego, Calif.). The Ki of oltipraz was determined by performing Segal transformations (26) of Dixon plots. […] Calculations were performed on spreadsheets using Lotus 1-2-3 software (Cambridge, Mass.)."}, "[5]": {"system": "glutathione S-transferases", "details": "Schistosoma mansoni; cited from earlier work"}, "H9 cells": {"system": "H9 cells", "assay": "Cytotoxicity in H9 cells by trypan blue exclusion", "assay_type": "cell-based, human", "details": "concentrations up to 120 μM, H9 cells"}, "HIV-1 (HTLVIIIB) [6]": {"system": "HIV-1 (HTLVIIIB)", "assay": "microbe, parasite or virus in culture", "assay_type": "cell-based"}, "[7]": {"details": "single 250 mg dose, adults, cited from earlier work"}, "[8]": {"target": "T1, HIV-1 reverse transcriptase (RT)", "assay": "Time-dependent (irreversible) inhibition of HIV-1 reverse transcriptase after preincubation", "assay_type": "biochemical", "procedure": "FIG. 6. […] RT was preincubated for the times indicated with oltipraz dissolved in DPBS containing 1 mg/ml bovine serum albumin, 0.13% DMSO, and either 4 μM TTP or 5 μg/ml poly(A):2.5 μg/ml oligo(dT). After incubation, 10 μl aliquots in triplicate were added to 25 μl of a reaction cocktail containing 4 μM TTP, 5 μg/ml poly(A), and 2.5 μg/ml oligo(dT) and assayed for TTP incorporation into DNA over 30 min. as described by Flexner, et al. (25). The insets are Kitz-Wilson transformations (41).\nas §1, with “DMSO.” for “DMSO. This concentration of DMSO had no effect on RT activity.”"}, "[9]": {"details": "Dixon plots, listed as oltipraz"}}, "note": "Entries after “also recorded” stand apart in the source; their conditions may differ. Like-named read-outs stand apart in the source and are kept apart here.", "data": [{"smiles": "Cc1c(-c2cnccn2)ssc1=S", "note": "[compound 11, 4-methyl-5-(2-pyrazinyl)-1,2-dithiole-3-thione]", "values": [{"measurement": "type of inhibition with respect to TTP", "setting": "[1]; [9]", "result": "non-competitive inhibitor"}, {"measurement": "type of inhibition with respect to poly(A):oligo(dT)", "setting": "[1]; [9]", "result": "mixed inhibitor"}, {"measurement": "Ki", "setting": "[1]; N=2 experiments, read-out: Ki with respect to TTP", "result": "183 ± 50", "unit": "µM"}, {"measurement": "Ki", "setting": "[1]; N=3 experiments, read-out: Ki with respect to poly(A):oligo(dT)", "result": "189 ± 29", "unit": "µM"}, {"measurement": "synergy as inhibitors of reverse transcriptase", "setting": "[1]; moderate to high levels of inhibition", "result": "synergistically with AZT 5'-triphosphate"}, {"measurement": "inhibition of recombinant HIV-1 reverse transcriptase", "setting": "[1]; poly(A):oligo(dT) and TTP as substrates", "result": "inhibitor"}, {"measurement": "effect on levels of RT activity in media", "setting": "[2]", "result": "dose-dependent effect"}, {"measurement": "tolerability at anti-HIV-1 doses", "setting": "[3]; in vivo", "result": "well tolerated"}, {"measurement": "tolerability of high doses", "setting": "[3]; single or split doses of 20-35 mg/kg, treatment of schistosomiasis", "result": "can be tolerated"}, {"measurement": "IC50", "setting": "HIV-1 (HTLVIIIB) [4]; Human immunodeficiency virus 1, H9, read-out: IC50 as determined by p24 antigen release assays", "result": "14.8 ± 3.1", "unit": "µM"}, {"measurement": "IC50", "setting": "HIV-1 (HTLVIIIB) [4]; Human immunodeficiency virus 1, H9, read-out: median dose (p24 release)", "result": 19.4, "unit": "µM"}, {"measurement": "synergy in inhibiting HIV-1 replication", "setting": "HIV-1 (HTLVIIIB) [4]; listed as Oltipraz", "result": "highly synergistic with azidothymidine (AZT)"}, {"measurement": "synergy in inhibiting HIV-1 replication", "setting": "HIV-1 (HTLVIIIB) [4]; listed as oltipraz", "result": "acts synergistically with AZT"}, {"measurement": "inhibition of glutathione S-transferases", "setting": "[5]", "result": "irreversibly inhibits"}, {"measurement": "cytotoxicity", "setting": "H9 cells", "result": "non-cytotoxic"}, {"measurement": "inhibition of HIV-1 replication, result in words", "setting": "HIV-1 (HTLVIIIB) [6]; H9 cells", "result": "effective"}, {"measurement": "inhibitory potency less than that of AZT (HIV-1 replication)", "setting": "HIV-1 (HTLVIIIB) [6]; H9 cells, relative to AZT (FIG. 3)", "result": "approximately 100 fold"}, {"measurement": "IC50", "setting": "HIV-1 (HTLVIIIB) [6]; Human immunodeficiency virus 1, H9, read-out: IC50 HIV-1 replication (Exp 1)", "result": 2, "unit": "µM"}, {"measurement": "IC50", "setting": "HIV-1 (HTLVIIIB) [6]; Human immunodeficiency virus 1, H9, read-out: IC50 HIV-1 replication (Exp 2)", "result": 3, "unit": "µM"}, {"measurement": "IC50", "setting": "HIV-1 (HTLVIIIB) [6]; Human immunodeficiency virus 1, H9, read-out: IC50 HIV-1 replication as determined by IFA", "result": "9.7 ± 2", "unit": "µM"}, {"measurement": "effect of pre-treatment of H9 cells with inducers on anti-HIV-1 activity", "setting": "HIV-1 (HTLVIIIB) [6]; inducers 3-4 days prior to exposure to virus, listed as oltipraz", "result": "did not increase the antiviral effect; also recorded: no enhancement of the anti-HIV-1 activity"}, {"measurement": "Cmax", "setting": "[7]; read-out: peak serum level", "result": "> 4", "unit": "µM"}, {"measurement": "peak serum level", "setting": "[7]", "result": "greater than 1 μg/ml"}, {"measurement": "irreversible inhibition of reverse transcriptase", "setting": "[8]; kinetic behaviour", "result": "behaves kinetically as an irreversible inhibitor of RT"}, {"measurement": "Ki", "setting": "[8]; preincubation with TTP, experiment of FIG. 6, Kitz-Wilson", "result": 15.6, "unit": "µM"}, {"measurement": "RT inactivation in the presence of poly(A):oligo(dT)", "setting": "[8]; preincubation with poly(A):oligo(dT), FIG. 6 lower, listed as oltipraz", "result": "indistinguishable from rates of RT inactivation in its absence; also recorded: inconsistent with irreversible inhibition"}, {"measurement": "Ki", "setting": "[8]; preincubation, N=5 independent experiments", "result": "25.9 ± 3.4", "unit": "µM"}, {"measurement": "kinact", "setting": "[8]; preincubation, N=5 independent experiments, read-out: k3 (limiting rate of inactivation) (converted)", "result": "1.44e-05", "unit": "s⁻¹"}, {"measurement": "kinact", "setting": "[8]; read-out: k3 (limiting rate of inactivation), preincubation with TTP, experiment of FIG. 6, Kitz-Wilson", "result": "2.33e-05", "unit": "s⁻¹"}]}]}
